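Values below derive from 48-hour exposures of cells grown in 96-well plates, with endpoints linearly interpolated between the two concentrations bracketing the appropriate inhibition level. GI50 marks 50% less growth. TGI is the concentration that stops growth completely.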 Where a SMILES comes first, the peptide text is derived from it. [ ]: non-standard residue; d: D form. The star is where a group is joined. hSer = N[CH](CCO)C(=O)O; Boc = CC(C)(C)OC(=O)*; Bn = c1ccc(C*)cc1
Legend:
Experiment in all cases: DTP human tumour cell line panel, 48 h
SF-539 CNS = tested on: SF-539 CNS
IGROV1 ovarian = tested on: IGROV1 ovarian
SNB-19 CNS = tested on: SNB-19 CNS
MCF7 breast = tested on: MCF7 breast
TK-10 renal = tested on: TK-10 renal
ACHN renal = tested on: ACHN renal
HCT-116 colon = tested on: HCT-116 colon
CAKI-1 renal = tested on: CAKI-1 renal
HT29 colon = tested on: HT29 colon
SK-MEL-5 melanoma = tested on: SK-MEL-5 melanoma
SW-620 colon = tested on: SW-620 colon
NCI/ADR-RES ovarian = tested on: NCI/ADR-RES ovarian
OVCAR-3 ovarian = tested on: OVCAR-3 ovarian
UACC-257 melanoma = tested on: UACC-257 melanoma
OVCAR-4 ovarian = tested on: OVCAR-4 ovarian
HL-60(TB) leukemia = tested on: HL-60(TB) leukemia
BT-549 breast = tested on: BT-549 breast
HS 578T breast = tested on: HS 578T breast
UACC-62 melanoma = tested on: UACC-62 melanoma
SNB-75 CNS = tested on: SNB-75 CNS
UO-31 renal = tested on: UO-31 renal
A549 NSCLC = tested on: A549 NSCLC
CCRF-CEM leukemia = tested on: CCRF-CEM leukemia
M14 melanoma = tested on: M14 melanoma
K-562 leukemia = tested on: K-562 leukemia
A498 renal = tested on: A498 renal
RPMI-8226 leukemia = tested on: RPMI-8226 leukemia
MALME-3M melanoma = tested on: MALME-3M melanoma
NCI-H522 lung = tested on: NCI-H522 lung
KM12 colon = tested on: KM12 colon
SF-295 CNS = tested on: SF-295 CNS
LOX IMVI melanoma = tested on: LOX IMVI melanoma
786-0 renal = tested on: 786-0 renal
U251 CNS = tested on: U251 CNS
DU-145 prostate = tested on: DU-145 prostate
SK-MEL-2 melanoma = tested on: SK-MEL-2 melanoma
SK-MEL-28 melanoma = tested on: SK-MEL-28 melanoma
MDA-MB-435 = tested on: MDA-MB-435
HOP-92 NSCLC = tested on: HOP-92 NSCLC
OVCAR-5 ovarian = tested on: OVCAR-5 ovarian
RXF 393 renal = tested on: RXF 393 renal
MOLT-4 leukemia = tested on: MOLT-4 leukemia
SK-OV-3 ovarian = tested on: SK-OV-3 ovarian
T-47D breast = tested on: T-47D breast
HOP-62 NSCLC = tested on: HOP-62 NSCLC
NCI-H460 lung = tested on: NCI-H460 lung
SF-268 CNS = tested on: SF-268 CNS
COLO 205 colon = tested on: COLO 205 colon
MDA-MB-231 breast = tested on: MDA-MB-231 breast
NCI-H226 lung = tested on: NCI-H226 lung
OVCAR-8 ovarian = tested on: OVCAR-8 ovarian
HCC-2998 colon = tested on: HCC-2998 colon
HCT-15 colon = tested on: HCT-15 colon
PC-3 prostate = tested on: PC-3 prostate
EKVX NSCLC = tested on: EKVX NSCLC
SN12C renal = tested on: SN12C renal
NCI-H23 lung = tested on: NCI-H23 lung

Compound: C[C@]12CC[C@H]3[C@@H](CC4SC(N)=NC45C/C(=N/NC(N)=O)CC[C@]35C)[C@@H]1CCC2=O (some centres undefined)
- GI50 (SF-539 CNS): 2050 nM
- TGI (SF-539 CNS): 5230 nM
- GI50 (IGROV1 ovarian): 1780 nM
- TGI (IGROV1 ovarian): 3430 nM
- GI50 (SNB-19 CNS): 1870 nM
- TGI (SNB-19 CNS): 3620 nM
- GI50 (MCF7 breast): 1520 nM
- TGI (MCF7 breast): 3140 nM
- GI50 (TK-10 renal): 2290 nM
- TGI (TK-10 renal): 5450 nM
- GI50 (ACHN renal): 1800 nM
- TGI (ACHN renal): 3190 nM
- GI50 (HCT-116 colon): 2090 nM
- TGI (HCT-116 colon): 4350 nM
- GI50 (CAKI-1 renal): 1770 nM
- TGI (CAKI-1 renal): 3640 nM
- GI50 (HT29 colon): 1880 nM
- TGI (HT29 colon): 3730 nM
- GI50 (SK-MEL-5 melanoma): 1570 nM
- TGI (SK-MEL-5 melanoma): 2970 nM
- GI50 (SW-620 colon): 1690 nM
- TGI (SW-620 colon): 3390 nM
- GI50 (NCI/ADR-RES ovarian): 1940 nM
- TGI (NCI/ADR-RES ovarian): 3870 nM
- GI50 (OVCAR-3 ovarian): 1870 nM
- TGI (OVCAR-3 ovarian): 3440 nM
- GI50 (UACC-257 melanoma): 2400 nM
- TGI (UACC-257 melanoma): 5830 nM
- GI50 (OVCAR-4 ovarian): 1740 nM
- TGI (OVCAR-4 ovarian): 3170 nM
- GI50 (HL-60(TB) leukemia): 2730 nM
- TGI (HL-60(TB) leukemia): 7950 nM
- GI50 (BT-549 breast): 2840 nM
- TGI (BT-549 breast): 8910 nM
- GI50 (HS 578T breast): 2080 nM
- TGI (HS 578T breast): 5150 nM
- GI50 (UACC-62 melanoma): 1630 nM
- TGI (UACC-62 melanoma): 3130 nM
- GI50 (SNB-75 CNS): 1580 nM
- TGI (SNB-75 CNS): 3500 nM
- GI50 (UO-31 renal): 1520 nM
- TGI (UO-31 renal): 2880 nM
- GI50 (A549 NSCLC): 2020 nM
- TGI (A549 NSCLC): 3890 nM
- GI50 (CCRF-CEM leukemia): 280 nM
- TGI (CCRF-CEM leukemia): 1620 nM
- GI50 (M14 melanoma): 1940 nM
- TGI (M14 melanoma): 3770 nM
- GI50 (K-562 leukemia): 1810 nM
- TGI (K-562 leukemia): 5080 nM
- GI50 (A498 renal): 2100 nM
- TGI (A498 renal): 6830 nM
- GI50 (RPMI-8226 leukemia): 300 nM
- TGI (RPMI-8226 leukemia): 1370 nM
- GI50 (MALME-3M melanoma): 1760 nM
- TGI (MALME-3M melanoma): 3490 nM
- GI50 (NCI-H522 lung): 1930 nM
- TGI (NCI-H522 lung): 4060 nM
- GI50 (KM12 colon): 2010 nM
- TGI (KM12 colon): 4020 nM
- GI50 (SF-295 CNS): 1610 nM
- TGI (SF-295 CNS): 3030 nM
- GI50 (LOX IMVI melanoma): 1710 nM
- TGI (LOX IMVI melanoma): 3120 nM
- GI50 (786-0 renal): 1390 nM
- TGI (786-0 renal): 2820 nM
- GI50 (U251 CNS): 1770 nM
- TGI (U251 CNS): 3220 nM
- GI50 (DU-145 prostate): 1750 nM
- TGI (DU-145 prostate): 3410 nM
- GI50 (SK-MEL-2 melanoma): 1980 nM
- TGI (SK-MEL-2 melanoma): 4580 nM
- GI50 (SK-MEL-28 melanoma): 1630 nM
- TGI (SK-MEL-28 melanoma): 3100 nM
- GI50 (MDA-MB-435): 1330 nM
- TGI (MDA-MB-435): 2700 nM
- GI50 (HOP-92 NSCLC): 1510 nM
- TGI (HOP-92 NSCLC): 3160 nM
- GI50 (OVCAR-5 ovarian): 1710 nM
- TGI (OVCAR-5 ovarian): 3190 nM
- GI50 (RXF 393 renal): 1610 nM
- TGI (RXF 393 renal): 3230 nM
- GI50 (MOLT-4 leukemia): 2640 nM
- TGI (MOLT-4 leukemia): 7020 nM
- GI50 (SK-OV-3 ovarian): 6210 nM
- TGI (SK-OV-3 ovarian): 22300 nM
- GI50 (T-47D breast): 1860 nM
- TGI (T-47D breast): 3800 nM
- GI50 (HOP-62 NSCLC): 1840 nM
- TGI (HOP-62 NSCLC): 3470 nM
- GI50 (NCI-H460 lung): 1920 nM
- TGI (NCI-H460 lung): 3610 nM
- GI50 (SF-268 CNS): 1780 nM
- TGI (SF-268 CNS): 4110 nM
- GI50 (COLO 205 colon): 2060 nM
- TGI (COLO 205 colon): 4370 nM
- GI50 (MDA-MB-231 breast): 1700 nM
- TGI (MDA-MB-231 breast): 3430 nM
- GI50 (NCI-H226 lung): 2090 nM
- TGI (NCI-H226 lung): 4910 nM
- GI50 (OVCAR-8 ovarian): 1850 nM
- TGI (OVCAR-8 ovarian): 3630 nM
- GI50 (HCC-2998 colon): 1740 nM
- TGI (HCC-2998 colon): 3280 nM
- GI50 (HCT-15 colon): 1460 nM
- TGI (HCT-15 colon): 2860 nM
- GI50 (PC-3 prostate): 1250 nM
- TGI (PC-3 prostate): 2750 nM
- GI50 (EKVX NSCLC): 1800 nM
- TGI (EKVX NSCLC): 3630 nM
- GI50 (SN12C renal): 1890 nM
- TGI (SN12C renal): 3450 nM
- GI50 (NCI-H23 lung): 1780 nM
- TGI (NCI-H23 lung): 3320 nM

Compound: CCCCCCCCCCCCCCCCNCCC[C@@H](C)[C@H]1CC[C@H]2[C@@H]3[C@H](OCCCN)C[C@@H]4C[C@H](OCCCN)CC[C@]4(C)[C@H]3C[C@H](OCCCN)[C@]12C
- GI50 (CAKI-1 renal): 1900 nM
- TGI (CAKI-1 renal): 4580 nM
- GI50 (SW-620 colon): 2180 nM
- TGI (SW-620 colon): 4940 nM
- GI50 (UO-31 renal): 2530 nM
- TGI (UO-31 renal): 5210 nM
- GI50 (M14 melanoma): 2500 nM
- TGI (M14 melanoma): 5650 nM
- GI50 (NCI-H522 lung): 2250 nM
- TGI (NCI-H522 lung): 5360 nM
- GI50 (KM12 colon): 2180 nM
- TGI (KM12 colon): 5030 nM
- GI50 (SK-MEL-2 melanoma): 2480 nM
- TGI (SK-MEL-2 melanoma): 5350 nM
- GI50 (MDA-MB-435): 2280 nM
- TGI (MDA-MB-435): 6570 nM
- GI50 (SF-268 CNS): 2170 nM
- TGI (SF-268 CNS): 4950 nM
- GI50 (COLO 205 colon): 2520 nM
- TGI (COLO 205 colon): 5130 nM
- GI50 (NCI-H23 lung): 2390 nM
- TGI (NCI-H23 lung): 5400 nM

Compound: CC(C)CC(NC(=O)OC(C)(C)C)C(=O)NC(CCOCc1ccccc1)C(N)=O (stereo not drawn) (Boc-Leu-[hSer](Bn)-NH2; configuration not given here)
- GI50 (HOP-92 NSCLC): 21.4 µg/mL
- TGI (HOP-92 NSCLC): 57.4 µg/mL
- GI50 (SK-OV-3 ovarian): 46.1 µg/mL
